Like-named read-outs stand apart in the source and are kept apart here.
Tests used:
[1] = tested on: six bacteria (S. aureus, E. coli, P. aeruginosa; ATCC and clinical isolate); type: cell-based; details: synthesized mature peptide
Method: (§1) Antimicrobial testing of 78 cathelicidin MPs was performed in two phases as outlined in Figure 1 . In phase I, 40 peptides (27 extant and 13 ancestral) were selected for testing based on rank (outlined above) and similarity to published marsupial cathelicidins with known antimicrobial activity ([33], [41]–[43]). These peptides were tested against nine bacteria (Staphylococcus aureus ATCC 29213 and clinical isolate, Escherichia coli ATCC 25922 and clinical isolate, Pseudomonas aeruginosa ATCC 27853 and clinical isolate, Streptococcus agalactiae ATCC 12386 and clinical isolate, Streptococcus pneumoniae ATCC 49619) and three fungi (Candida krusei ATCC 6258, Candida parapsilosis ATCC 22019, and Candida albicans clinical isolate). Details regarding these strains are available in Supplementary Table 4 . The antimicrobial activity of cathelicidins was determined as the minimum inhibitory concentration (MIC), which was the lowest concentration of cathelicidin that prevented visible bacterial or fungal growth, relative to the negative control. […] Minimum bactericidal concentration (MBC) and/or minimum fungicidal concentration (MFC) was conducted to determine microbicidal versus static action. Activity against S. aureus ATCC, E. coli ATCC, and Pseudomonas aeruginosa ATCC 27853 was examined in the presence of divalent cations to determine the impact of inhibitors.
(§2) In phase II, the remaining 38 peptides (37 extant and one ancestral) were tested against six bacteria (S. aureus ATCC and clinical isolate, E. coli ATCC and clinical isolate, and P. aeruginosa ATCC and clinical isolate). […] No further testing on phase II peptides was performed. Detailed methods for all assays are provided in subsequent sections.
(§3) Antimicrobial activity was determined using a broth microdilution susceptibility assay in 96 well polypropylene plates according to Clinical Laboratory Standards Institute guidelines M07-A and M26A as described previously ([33], [42], [43]). The bacterial and fungal isolates from humans and animals used in this study are outlined in Supplementary Table 4 . Only yeasts were included in the panel of fungi as they have been used in the susceptibility testing of eutherian ([3], [81]–[83]) and other marsupial cathelicidins previously ([33], [42], [43]). Cathelicidin mature peptides were solubilized in DMSO and serially diluted in duplicate from 128-0.25μg/mL in a final volume of 100µL. For bacteria, cathelicidins were diluted in Mueller Hinton Broth (MHB) with or without 10% lysed horse blood, and with (MH II B) or without (MHB) calcium and magnesium cations. For fungi, cathelicidins were diluted in Roswell Park Memorial Institute medium (RPMI)-1640 MOPS. Ampicillin or tetracycline were included as a positive control for Gram-positive and -negative bacteria respectively, while amphotericin B was used for fungi. A media-only negative control and growth control (no cathelicidin) were also included on each plate. Bacteria were sub-cultured on Muller Hinton agar (MHA) or sheep blood agar (BA), and fungi on Sabouraud dextrose agar (SAB), 20–24 hours prior to the test. Colonies were suspended in saline, the concentration adjusted to a 0.5 McFarland standard, and then diluted in media to a concentration of 1.0 x 10^6 cells/mL. Then, 100μL was added to each well of the cathelicidin dilution plate, giving a final inoculum density of 5 x 10^5 CFU/mL and cathelicidin concentration of 64-0.125μg/mL. Colony counts were performed on MHA/BA/SAB to confirm inoculum density. All plates were incubated at 35°C for 20–24 hours, depending on the strain.
(§4) Colonies were counted and compared to the colony count of the starting inoculum.

[2] = tested on: Escherichia coli ATCC 25922; assay: microbe, parasite or virus in culture; type: cell-based; details: µM equivalent of Table 3; for MBC E. coli ATCC: value in brackets
Method: as §1, §2, §3, §4

[3] = tested on: Pseudomonas aeruginosa clinical isolate - animal; assay: microbe, parasite or virus in culture; type: cell-based; details: clinical isolate; µM equivalent of Table 3; read-out: MIC P. aeruginosa
Method: as §1, §2, §3, §4

[4] = tested on: Staphylococcus aureus ATCC 29213; assay: microbe, parasite or virus in culture; type: cell-based; details: µM equivalent of Table 3
Method: as §1, §2, §3, §4

[5] = tested on: Staphylococcus aureus clinical isolate - animal; assay: microbe, parasite or virus in culture; type: cell-based; details: clinical isolate, µM equivalent of Table 3
Method: as §1, §2, §3, §4

[6] = tested on: Escherichia coli clinical isolate - animal; assay: microbe, parasite or virus in culture; type: cell-based; details: clinical isolate, µM equivalent of Table 3
Method: as §1, §2, §3, §4

[7] = tested on: Pseudomonas aeruginosa ATCC 27853; assay: microbe, parasite or virus in culture; type: cell-based; details: µM equivalent of Table 3; read-out: MIC P. aeruginosa ATCC
Method: as §1, §2, §3, §4

[8] = tested on: three fungi (Candida krusei, Candida parapsilosis, Candida albicans); parameters: method as in 4 sources, ref Peel et al 2016 ||| ref Peel et al 2021 ||| ref Wang et al 2011 ||| ref Peel et al 2017; details: cited from earlier work
[9] = tested on: six bacteria (S. aureus, E. coli, P. aeruginosa; ATCC and clinical isolate); parameters: method as in 4 sources, ref Peel et al 2016 ||| ref Peel et al 2021 ||| ref Wang et al 2011 ||| ref Peel et al 2017; details: cited from earlier work
[10] = broth microdilution screening, phase I or II, Y/N summary over the bacteria tested
[11] = mature peptide (MP), Y/N summary, ref Peel et al 2017
[12] = mature peptide, Y/N summary from earlier study, ref Wang et al 2011
[13] = mature peptide, Y/N summary from earlier study, ref Peel et al 2021
[14] = mature peptide, Y/N summary from earlier study, ref Peel et al 2016
[15] = mature peptide, Y/N summary from earlier study, ref Peel et al 2017

KKTRTKPKNSIRRRIKGFGIGTIILVPL [MagiCath6, predicted eastern grey kangaroo cathelicidin mature peptide]
Antibacterial (MIC <64ug/mL) [1, 10]: Y (Antibacterial (MIC <64ug/mL)) | MBC E. coli ATCC [2]: 8.8 µM | MIC E. coli ATCC [2]: 8.8 µM | MIC [3]: >17.6 µM | MBC S. aureus ATCC ([4]; value in brackets): 17.6 µM | MIC S. aureus ATCC [4]: 17.6 µM | MBC S. aureus ([5]; value in brackets): 17.6 µM | MIC S. aureus [5]: 17.6 µM | MBC E. coli ([6]; value in brackets): 17.6 µM | MIC E. coli [6]: 17.6 µM | MIC [7]: >17.6 µM

KEKATKFRNSIRRRVNGLKIGAADRVPGHYLA [MagiCath5]
Antibacterial (MIC <64ug/mL) [1, 10]: N (Antibacterial (MIC <64ug/mL))

GEKVKTRFIAAIKKLIDTFLP [MaruCath8]
Antibacterial (MIC <64ug/mL) [1, 10]: N (Antibacterial (MIC <64ug/mL))

FRKLRNIFSRGRDDKE [MagiCath4]
Antibacterial (MIC <64ug/mL) [1, 10]: N (Antibacterial (MIC <64ug/mL))

KKFLKSVIKEAISKGIPKGIQAVNKLIKEKKEGQKHKP [MAP2, marsupial ancestral peptide, predicted by ANCESCON and GASP, synthesized]
Antibacterial (MIC <64ug/mL) ([1]; antimicrobial screening Phase II, Y/N summary over bacteria tested, broth microdilution): N (Antibacterial (MIC <64ug/mL))

RTLLRRVGEKVKTRFIAALEKLIDTFLP [MagiCath3, predicted eastern grey kangaroo cathelicidin mature peptide]
Antibacterial (MIC <64ug/mL) [1, 10]: Y (Antibacterial (MIC <64ug/mL)) | MBC E. coli ATCC [2]: > 14.3 µM | MIC E. coli ATCC [2]: 14.3 µM | MIC [3]: >14.3 µM | MIC ([4]; read-out: MIC S. aureus ATCC): >14.3 µM | MIC ([5]; read-out: MIC S. aureus): >14.3 µM | MIC [6]: >14.3 µM | MIC [7]: >14.3 µM

TPELFRSRRSPLPGRKKGSKRPKPGSYSVIALGKPGLKKAPYMEAL [LahiCath1]
Antibacterial (MIC <64ug/mL) [1, 10]: N (Antibacterial (MIC <64ug/mL))

PGRKKGSKRHKPGSYSVIALGKPGVKKAPYMEAL [MagiCath2]
Antibacterial (MIC <64ug/mL) [1, 10]: N (Antibacterial (MIC <64ug/mL))

SVPGTRAQSGTTSPGSGSRRVARSRG [OranCath6]
Antifungal (MIC <64ug/mL) [8, 11]: N (Peel et al 2017) (Antifungal (MIC <64ug/mL)) | Antibacterial (MIC <64ug/mL) [9, 11]: N (Peel et al 2017) (Antibacterial (MIC <64ug/mL))

KRGFGKKLRKRLKKFRNSIKKRLKNFNVVIPIPLPG [MaeuCath1]
Antifungal (MIC <64ug/mL) [8, 12]: Y (Wang et al 2011) (Antifungal (MIC <64ug/mL)) | Antibacterial (MIC <64ug/mL) [9, 12]: Y (Wang et al 2011) (Antibacterial (MIC <64ug/mL))

PKQKNGSKNRRFRIGGYTMISMKQPRVQKAPYMEAL [ModoCath9]
Antifungal (MIC <64ug/mL) [8, 11]: N (Peel et al 2017) (Antifungal (MIC <64ug/mL)) | Antibacterial (MIC <64ug/mL) [9, 11]: N (Peel et al 2017) (Antibacterial (MIC <64ug/mL))

APVTPAPPGFTTSSKKKGKKKLPYTVIFGRTDFP [ModoCath3]
Antifungal (MIC <64ug/mL) [8, 11]: N (Peel et al 2017) (Antifungal (MIC <64ug/mL)) | Antibacterial (MIC <64ug/mL) [9, 11]: N (Peel et al 2017) (Antibacterial (MIC <64ug/mL))

VSESISHGIPKAISAVNKLIKKKKKGATTPRVK [ModoCath6]
Antifungal (MIC <64ug/mL) [8, 11]: N (Peel et al 2017) (Antifungal (MIC <64ug/mL)) | Antibacterial (MIC <64ug/mL) [9, 11]: N (Peel et al 2017) (Antibacterial (MIC <64ug/mL))

STILEDPGKIRERRDIGEEPIQKKQKMYRDQMQ [SahaCath7]
Antifungal (MIC <64ug/mL) [8, 13]: N (Peel et al 2021) (Antifungal (MIC <64ug/mL)) | Antibacterial (MIC <64ug/mL) [9, 13]: N (Peel et al 2021) (Antibacterial (MIC <64ug/mL))

GIKHILFMAKTKLPRATCTAEIKENCDRKK [SahaCath1]
Antifungal (MIC <64ug/mL) [8, 14]: N (Peel et al 2016) (Antifungal (MIC <64ug/mL)) | Antibacterial (MIC <64ug/mL) [9, 14]: N (Peel et al 2016) (Antibacterial (MIC <64ug/mL))

TFKRKNGSRKNGHRPGGYSLIALGNKKVLKAPYMESI [SahaCath2]
Antifungal (MIC <64ug/mL) [8, 14]: N (Peel et al 2016) (Antifungal (MIC <64ug/mL)) | Antibacterial (MIC <64ug/mL) [9, 14]: N (Peel et al 2016) (Antibacterial (MIC <64ug/mL))

KRGFGDSVKKTGTKLKNSIRRRVTGLTVGAAVLRPG [MaruCath1p]
Antibacterial (MIC <64ug/mL) [1, 10]: N (Antibacterial (MIC <64ug/mL))

GEKVKTRFIAAIEKLIDTFLP [MaeuCath3]
Antifungal (MIC <64ug/mL) [8, 15]: N (Peel et al 2017) (Antifungal (MIC <64ug/mL)) | Antibacterial (MIC <64ug/mL) [9, 15]: N (Peel et al 2017) (Antibacterial (MIC <64ug/mL))

ASSGIIDTSSLPPKIRQIYNQAVYDTLVGILRNF [PhciCath6]
Antifungal (MIC <64ug/mL) [8, 13]: N (Peel et al 2021) (Antifungal (MIC <64ug/mL)) | Antibacterial (MIC <64ug/mL) [9, 13]: N (Peel et al 2021) (Antibacterial (MIC <64ug/mL))

KRMGIFHLFWAGLRKLGNLIKNKIQQGIENFLG [SahaCath3]
Antifungal (MIC <64ug/mL) [8, 14]: Y (Peel et al 2016) (Antifungal (MIC <64ug/mL)) | Antibacterial (MIC <64ug/mL) [9, 14]: N (Peel et al 2016) (Antibacterial (MIC <64ug/mL))

PRRKKGPKKDNYKPGGYSLIALGKPDIQKAPYMEAL [MaruCath7]
Antibacterial (MIC <64ug/mL) [1, 10]: N (Antibacterial (MIC <64ug/mL))

NFIHQKYRILLDKYRKLQDIFSGSGDKV [PhciCath2]
Antifungal (MIC <64ug/mL) [8, 13]: N (Peel et al 2021) (Antifungal (MIC <64ug/mL)) | Antibacterial (MIC <64ug/mL) [9, 13]: N (Peel et al 2021) (Antibacterial (MIC <64ug/mL))

KVKRGLWDTVKRKVTNLRNSIRNRATNFKLGG [MagiCath1]
Antibacterial (MIC <64ug/mL) [1, 10]: N (Antibacterial (MIC <64ug/mL))

GSTSSPTVRF [LahiCath2]
Antibacterial (MIC <64ug/mL) [1, 10]: N (Antibacterial (MIC <64ug/mL))

LKKFFSSMIKKAVSKGISKGISKGIQEVDKAIKQKK [ModoCath2]
Antifungal (MIC <64ug/mL) [8, 11]: N (Peel et al 2017) (Antifungal (MIC <64ug/mL)) | Antibacterial (MIC <64ug/mL) [9, 11]: N (Peel et al 2017) (Antibacterial (MIC <64ug/mL))

LKKIFGSIVKKAVSKGVAEGLKAVDEARKAEKKGKK [ModoCath1]
Antifungal (MIC <64ug/mL) [8, 11]: N (Peel et al 2017) (Antifungal (MIC <64ug/mL)) | Antibacterial (MIC <64ug/mL) [9, 11]: N (Peel et al 2017) (Antibacterial (MIC <64ug/mL))

RTFGNLIHQKYRKLLEAYRKLRDIFSG [ModoCath5]
Antifungal (MIC <64ug/mL) [8, 11]: N (Peel et al 2017) (Antifungal (MIC <64ug/mL)) | Antibacterial (MIC <64ug/mL) [9, 11]: N (Peel et al 2017) (Antibacterial (MIC <64ug/mL))

Source: paper PMC12006171, “Marsupial cathelicidins: characterization, antimicrobial activity and evolution in this unique mammalian lineage” (Frontiers in Immunology, 2025)
